How the values were obtained:
C. suis merozoites = experiment: Merozoite replication (growth) inhibition in infected IPEC-1 cultures, free merozoites counted 9 dpi; type: cell-based, Cystoisospora suis; conditions: for Decrease of total merozoite counts: 400 nM once at 2 dpi, vs DMSO-only and no-treatment controls; for Merozoite replication at 9 dpi: 50 nM, P < 0.05 vs DMSO-only and no-treatment
Protocol: The laboratory strain C. suis Wien I ([Joachim and Mundt, 2011]), was maintained by passage in suckling piglets every 3–6 months and infectivity in vivo was assessed regularly at the Institute of Parasitology, University of Veterinary Medicine, Vienna. Oocysts were purified from collected feces, brought to sporulation and stored as described elsewhere ([Worliczek et al., 2013]). For in vitro studies, sporozoites were excysted ([Worliczek et al., 2013]), enumerated with a hemocytometer and used immediately for infection of semi-permanent intestinal porcine epithelial cells (IPEC-1). For in vivo studies, sporulated oocysts were washed with tap water and enumerated prior to infection of piglets.
IPEC-1 cells were maintained in culture medium at 37 °C and 5% CO2 (DHEM/HAM12 supplemented with 5% fetal calf serum and penicillin/streptomycin; Gibco via Thermo Fisher, Vienna, Austria). Cells (4 × 10^4) were used to seed 24-well plates and grown to confluence. All BKI compounds were stored as 20 mM stock solutions in 100% dimethyl sulfoxide (DMSO) at −20 °C. Cell viability in the presence of DMSO and BKIs was determined by colorimetric cell proliferation (WST-1) assays ([Shrestha et al., 2019]). In addition IPEC-1 cells were infected with serial dilutions of C. suis sporozoites, obtained after excystation to evaluate the growth curves of merozoites during 5–9 days of cultivation. To determine the effect of BKI 1369 on parasite replication, sporozoites (5 × 10^2) were added to each well one day after seeding of host cells and incubated with different concentrations of BKI 1369 at 40 °C for various time periods or a DMSO control, in triplicate.
In order to test whether BKI 1369 affects initial host cell invasion by C. suis, freshly excysted sporozoites were pre-incubated with BKI 1369 or DMSO for 6 h at 37 °C. Subsequently, sporozoites were washed with medium and used for infection of cell monolayers (5 × 10^2/well), in triplicate. Readout for both growth (merozoite replication) and invasion-inhibition experiments was microscopical evaluation by counting free merozoites 9 days post-infection (dpi) from culture supernatants. Supernatants were collected and free merozoites were counted in pooled samples at 9 dpi from quadruplicate wells in C-Chip disposable hemocytometers (NanoEnTek/Roth Lactan, Graz, Austria). All assays included DMSO and no-treatment controls in quadruplicate.
Statistical calculations for in vivo trials were performed with RStudio version 1.1.453 (RStudio Team, 2018), descriptive statistics with Microsoft Excel 2010 (Microsoft Inc., Vienna, Austria) and GraphPad Prism version 5.04 for Windows (GraphPad Software, San Diego, California USA). Differences in clinical and parasitological parameters between groups were analyzed with ANOVA in the case of normal distribution and variance homogeneity of the data, or a Kruskal-Wallis rank sum test if this was not the case. In the event of significance for the omnibus tests, parametric or non-parametric post-hoc tests for multiple comparisons were performed (according to Tukey and Conover, respectively), with P-value adjustment after Bonferroni. In vitro assays were evaluated by t-tests with significance reported at P < 0.05. For testing of efficacy in vitro, the percentage of growth/invasion inhibition was calculated as follows: % inhibition = (1−No. of merozoites counted at 9 dpi in BKI 1369 treated culture /No. of merozoites counted at 9 dpi in DMSO-only treated culture)x100

[1] = parameters: species or system piglets; conditions: in vivo
Protocol: In experiment II, additional fecal samples were collected from piglets which shed oocysts after treatment with BKI 1369. Fecal DNA preparation was carried out by established procedures. PCR assays were used for the amplification of the genomic DNA fragments encoding CsCDPK1. PCR assays used primers upstream (166 and 91 base pairs of the start codon) and downstream (89 and 39 base pairs) of the CsCDPK1 stop codon fragment to generate templates for a subsequent nested run. Nested PCR amplification of the 5955 base pair fragment was achieved using the primer pair LIC_CsCDPK_Fwd: […] and LIC_CsCDPK_Rev: […]. PCR amplicons were cloned into TA TOPO 2 vectors (Invitrogen, Carlsbad, California, USA) and sequenced at GENEWIZ Inc. (Seattle, USA) to confirm the presence or absence of mutations that could affect drug sensitivity. Moreover, two piglets from each group were sacrificed at the end of the study (SD 29; 24 days after treatment) and tissue samples (liver, muscle, kidney, backfat, jejunum) were collected and processed similar to the fecal samples in experiment I, except that 20 nM propranolol was used as an internal standard instead of 100 μM, to determine residues of BKI 1369 and its metabolites.
Tissue and feces from vehicle control treated piglets were used as blanks or standards. Calibration curves for BKI 1369, BKI 1318, and BKI 1817 were prepared by adding 2 μL BKI in dimethylsulfoxide (DMSO) to 18 μL tissue or feces controls to generate nominal concentrations of 0.004, 0.008, 0.02, 0.04, 0.08, 0.2, 0.4, 0.8, 2, 5, 10, and 20 μM. Calibration curves were generated separately for each tissue type and feces.
5 μL of tissue homogenate curves and samples were added to tubes that contained 95 μL of 80:20 acetonitrile: water. As an internal standard, propranolol was added to each sample to a final concentration of 20 nM. Samples were dried to completion using a miVac Duo Concentrator (SP Scientific, Pennsylvania, USA) at 35 °C. Sample processing for feces was similar but utilized a slightly different process to concentrate the sample as explained in the methods. Dried Samples were sealed and shipped to the University of Washington for LC-MS/MS analysis.

CCOc1ccc2cc(-c3nn(CC4CCNCC4)c4ncnc(N)c34)ccc2n1 [BKI 1318]
Decrease of total merozoite counts (C. suis merozoites): 85.1% | Residue in liver [1]: -Samples above LoQ BKI 1318: N/A -Samples above background, but below LoQ BKI 1318: liver from piglet 304 and muscle from piglet 302

CCOc1ccc2cc(-c3nn(CC4CCN(C)CC4)c4ncnc(N)c34)ccc2n1 [BKI 1369]
Merozoite replication at 9 dpi (C. suis merozoites; incubation 0–3 dpi): significantly inhibited merozoite replication | Merozoite replication at 9 dpi (C. suis merozoites; incubation 3–6 dpi): significantly inhibited merozoite replication | Decrease of total merozoite counts (C. suis merozoites): 96.1% | Concentrations giving significant reduction of merozoite replication at 9 dpi (C. suis merozoites; single application 2 dpi): ≥ 200 nM | Quantifiable residue values, all tissue types [1]: below 0.2 μM | Residue in fat [1]: above background, but below LoQ | Residue in jejunum [1]: above background, but below LoQ
